Patent US4818753A, “Synthesis and method of use for 2, 4 diaminoquinazoline” (SRI International, priority 1987, dated 1989)
Converted amounts (≈) assume the structure as drawn. Like-named read-outs stand apart in the source and are kept apart here.

Columns and labels:
Plasmodium species = conditions: Hariri 1976; cited from earlier work
Cryptococcus neoformans [1] = conditions: Hariri 1976; cited from earlier work
Cryptococcus neoformans [2] = conditions: Hariri 1976, cited from earlier work
[3] = tested on: Trichophyton mentagrophytes (11481); assay: Broth dilution assay, F6; assay type: cell-based
Procedure: (§1) Both broth dilution and agar dilution assays were used to assess the antifungal activity of the compounds of the invention. The cultures were maintained in Sabouraud dextrose broth (SDB) and diluted with […]. 2.5 l of SDB was prepared and distributed into sterile vessels as follows: 49 ml into 1 vessel, 27 ml into 3 vessels, 45 ml into 2 vessels.
(§2) Five mg/ml concentration of each compound was prepared using DMSO as the solvent; warming and sonication were necessary to dissolve each compound completely. The compounds were then diluted in SDB according to the following protocol:
(§3) 5. 1 ug/ml--5 ml (3)+45 ml SDB
(§4) The compound at each concentration in SDB was then dispensed into 6 tubes each containing 4 ml […]. Controls (without any compound) were also prepared to insure that the solvent itself was not fungicidal or fungistatic.
(§5) Cultures were grown in SDB for 24 h at 30° C. C. albicans and C. neoformans were diluted 1:10 in SDB before inoculation. Inoculation volume for yeasts was 2 drops of diluted cells per tube. The fungal cultures were homogenized before inoculation. The same volume was added, but without dilution. All tubes were incubated at room temperature on a rotating wheel. After 16 h of incubation at room temperature, the fungistatic assay was set up on agar plates. […] Yeasts were inoculated onto SDA (the corresponding agar) plates and fungi onto mycosel agar plates. These plates were then incubated at room temperature.

Candida albicans (10231) = assay: Broth dilution assay, F1; assay type: cell-based
Procedure: as §1, §2, §3, §4, §5

[4] = tested on: Epidermophyton floccosum (15693); assay: Broth dilution assay, F4; assay type: cell-based; conditions: for MIC: Table 1, F4, Sabouraud Dextrose Broth pH 5.5, read-out: Minimum Inhibitory Concentration (S, fungistatic)
Procedure: as §1, §2, §3, §4, §5

[5] = tested on: Microsporum gypseum (14683); assay: Broth dilution assay, F12; assay type: cell-based; conditions: Nannizzia gypsea
Procedure: as §1, §2, §3, §4, §5

Candida albicans (14053) = assay: Broth dilution assay, F2; assay type: cell-based; conditions: for MIC: Table 1, F2, Sabouraud Dextrose Broth pH 5.5, read-out: Minimum Inhibitory Concentration (S, fungistatic); for MFC: Table 1, F2, Sabouraud Dextrose Broth pH 5.5, read-out: Minimum Lethal Concentration (C, fungicidal)
Procedure: as §1, §2, §3, §4, §5

[6] = tested on: Penicillium citrinum (9849); assay: Broth dilution assay, F19; assay type: cell-based; conditions: for MIC: Table 1, F19, Sabouraud Dextrose Broth pH 5.5, read-out: Minimum Inhibitory Concentration (S, fungistatic); for MFC: Table 1, F19, Sabouraud Dextrose Broth pH 5.5, read-out: Minimum Lethal Concentration (C, fungicidal)
Procedure: as §1, §2, §3, §4, §5

[7] = tested on: Cryptococcus neoformans (13690); assay: Broth dilution assay, F3; assay type: cell-based
Procedure: as §1, §2, §3, §4, §5

fungi = assay: Broth dilution assay, whole panel; assay type: cell-based; conditions: Tables 1 and 2
Procedure: as §1, §2, §3, §4
as §5, with “These plates were then incubated at room temperature.” left out

[8] = Table 1, F6, Sabouraud Dextrose Broth pH 5.5, read-out: Minimum Inhibitory Concentration (S, fungistatic)
[9] = Table 1, F6, Sabouraud Dextrose Broth pH 5.5, read-out: Minimum Lethal Concentration (C, fungicidal)
[10] = Table 1, F1, Sabouraud Dextrose Broth pH 5.5, read-out: Minimum Inhibitory Concentration (S, fungistatic)
[11] = Table 1, F1, Sabouraud Dextrose Broth pH 5.5, read-out: Minimum Lethal Concentration (C, fungicidal)
[12] = Table 1, F4, Sabouraud Dextrose Broth pH 5.5, read-out: Minimum Lethal Concentration (C, fungicidal)
[13] = Table 1, Sabouraud Dextrose Broth pH 5.5, read-out: Minimum Inhibitory Concentration (S, fungistatic)
[14] = Table 1, Sabouraud Dextrose Broth pH 5.5, read-out: Minimum Lethal Concentration (C, fungicidal)
[15] = Table 1, F3, Sabouraud Dextrose Broth pH 5.5, read-out: Minimum Inhibitory Concentration (S, fungistatic)
[16] = Table 1, F3, Sabouraud Dextrose Broth pH 5.5, read-out: Minimum Lethal Concentration (C, fungicidal)

Row | MIC [3, 8] [µg/mL] | MIC (Candida albicans (10231); [10]) [µg/mL] | MIC [4] [µg/mL] | MIC [5, 13] [µg/mL] | MIC (Candida albicans (14053)) [µg/mL] | MIC [6] [µg/mL] | MIC [7, 15] [µg/mL] | Structure (SMILES) | MFC [3, 9] [µg/mL] | MFC (Candida albicans (10231); [11]) [µg/mL] | MFC [4, 12] [µg/mL] | MFC [5, 14] [µg/mL] | MFC (Candida albicans (14053)) [µg/mL] | MFC [6] [µg/mL] | MFC [7, 16] [µg/mL] | other results
1 | – | – | – | – | – | – | – | Nc1nc(N)c2cc(NC(=O)Cc3ccc(Cl)c(Cl)c3)ccc2n1 [2,4-diamino-6-(2-(3,4-dichlorophenyl)acetamido)quinazoline] | – | – | – | – | – | – | – | activity against Plasmodium (Plasmodium species): no activity; in vivo activity (Cryptococcus neoformans [1]): active in vitro and in vivo; minimum inhibitory concentration (MIC) (Cryptococcus neoformans [2]; C. neoformans): 6 to 8 µg/mL; in vitro activity (Cryptococcus neoformans [2]; in vitro): active in vitro and in vivo
2 | > 30 | 100 (≈ 434 µM) | 10 (≈ 43.4 µM) | 30 (≈ 130 µM) | 100 (≈ 434 µM) | 100 (≈ 434 µM) | 30 (≈ 130 µM) | CCCCc1ccc2nc(N)nc(N)c2c1C [--CH2 (CH2)2 CH3] | > 30 | > 100 | 30 (≈ 130 µM) | > 30 | 100 (≈ 434 µM) | > 100 | 30 (≈ 130 µM) | –
3 | 30 (≈ 123 µM) | 100 (≈ 409 µM) | 10 (≈ 40.9 µM) | 30 (≈ 123 µM) | 100 (≈ 409 µM) | 100 (≈ 409 µM) | 10 (≈ 40.9 µM) | CCCCCc1ccc2nc(N)nc(N)c2c1C [--CH2 (CH2)3 CH 3] | > 30 | 100 (≈ 409 µM) | 30 (≈ 123 µM) | > 30 | 100 (≈ 409 µM) | 100 (≈ 409 µM) | 30 (≈ 123 µM) | –
4 | > 30 | > 100 | 30 (≈ 139 µM) | > 30 | > 100 | > 100 | > 100 | CCCc1ccc2nc(N)nc(N)c2c1C [--CH2 CH2 CH3] | > 30 | > 100 | > 30 | > 30 | > 100 | > 100 | > 100 | –
5 | > 30 | 100 (≈ 409 µM) | 10 (≈ 40.9 µM) | 30 (≈ 123 µM) | 100 (≈ 409 µM) | 100 (≈ 409 µM) | 10 (≈ 40.9 µM) | Cc1c(CCC(C)C)ccc2nc(N)nc(N)c12 [--CH2 CH2 CH(CH3)2] | > 30 | 100 (≈ 409 µM) | 10 (≈ 40.9 µM) | > 30 | 100 (≈ 409 µM) | > 100 | 30 (≈ 123 µM) | –
6 | > 30 | > 100 | > 30 | > 30 | > 100 | > 100 | > 100 | Cc1cccc2nc(N)nc(N)c12 [H] | > 30 | > 100 | > 30 | > 30 | > 100 | > 100 | > 100 | –

Row | Structure (SMILES) | MIC [3, 8] [µg/mL] | MIC (Candida albicans (10231); [10]) [µg/mL] | MIC [4] [µg/mL] | MIC [5, 13] [µg/mL] | MIC (Candida albicans (14053)) [µg/mL] | MIC [6] [µg/mL] | MIC [7, 15] [µg/mL] | MFC [3, 9] [µg/mL] | MFC (Candida albicans (10231); [11]) [µg/mL] | MFC [4, 12] [µg/mL] | MFC [5, 14] [µg/mL] | MFC (Candida albicans (14053)) [µg/mL] | MFC [6] [µg/mL] | MFC [7, 16] [µg/mL] | other results
7 | CCCCCCc1ccc2nc(N)nc(N)c2c1C [--CH2 (CH2)4 CH3, 2,4-Diamino-5-methyl-6-n-hexylquinazoline] | 30 (≈ 116 µM) | 30 (≈ 116 µM) | 3 (≈ 11.6 µM) | 10 (≈ 38.7 µM) | 30 (≈ 116 µM) | 100 (≈ 387 µM) | 3 (≈ 11.6 µM) | > 30 | 30 (≈ 116 µM) | – | 30 (≈ 116 µM) | 30 (≈ 116 µM) | 100 (≈ 387 µM) | 10 (≈ 38.7 µM) | MFC ([3]; Table 2, F6, Sabouraud Dextrose Broth pH 5.5, read-out: C Fungicidal): 30 µg/mL (≈ 116 µM); MIC ([3]; Table 2, F6, Sabouraud Dextrose Broth pH 5.5, read-out: S Fungistatic): 30 µg/mL (≈ 116 µM); MFC (Candida albicans (10231); Table 2, F1, Sabouraud Dextrose Broth pH 5.5, read-out: C Fungicidal): > 100 µg/mL; MIC (Candida albicans (10231); Table 2, F1, Sabouraud Dextrose Broth pH 5.5, read-out: S Fungistatic): 30 µg/mL (≈ 116 µM); MFC ([4]; Table 2, F4, Sabouraud Dextrose Broth pH 5.5, read-out: C Fungicidal): 30 µg/mL (≈ 116 µM); MFC ([5]; Table 2, Sabouraud Dextrose Broth pH 5.5, read-out: C Fungicidal): 100 µg/mL (≈ 387 µM); MIC ([5]; Table 2, Sabouraud Dextrose Broth pH 5.5, read-out: S Fungistatic): 30 µg/mL (≈ 116 µM); fungicidal and fungistatic activity in words (fungi): best fungicidal and fungistatic activity; MFC ([7]; Table 2, F3, Sabouraud Dextrose Broth pH 5.5, read-out: C Fungicidal): 3 µg/mL (≈ 11.6 µM); MIC ([7]; Table 2, F3, Sabouraud Dextrose Broth pH 5.5, read-out: S Fungistatic): 3 µg/mL (≈ 11.6 µM)
